Test system: VEGF-A mRNA expression in macrophages (RAW264.7)
Experiment: In vitro macrophage experiment: activity of compounds to promote VEGF-A mRNA expression (RT-qPCR)
Type: cell-based
Details: Mus musculus, RAW264.7 macrophages, 3 h, no drug = 1, read-out: Expression level of VEGF-A mRNA; for fold induction at 1 µM: relative expression 2^-ΔΔCt; for fold induction at 100 µM: 0.1 mM; for fold induction at 100 µM / fold induction at 500 µM / fold induction at 1000 µM / fold induction at 2000 µM / fold induction at 3000 µM: relative expression; for fold induction at 500 µM: 0.5 mM; for fold induction at 1000 µM: 1 mM; for fold induction at 2000 µM: 2 mM; for fold induction at 3000 µM: 3 mM
Source text: 1.1. Specific steps for activity screening: 1-10×10^6 macrophages (RAW264.7) in logarithmic growth phase were transferred to a cell culture plate. The test compounds (Compounds TG-001, TG-002, TG-003, TG-004, TG-005, TG-006, TG-007, TG-008, TG-009, TG-010, TG-011, TG-012, TG-013, TG-014, TG-015, TG-016, TG-017, TG-018, TG-019, TG-020, TG-021, TG-022, TG-023, TG-024, TG-025, TG-026, TG-027, TG-028, TG-029, TG-030, TG-031, TG-032, TG-033, TG-034, TG-035, TG-036, TG-037, TG-045, TG-039, TG-040 TG-041, TG-042, TG-043, TG-044, TG-045, TG-052, TG-053, TG-054, TG-047, TG-048, TG-046, TG-049, TG-050, TG-051, TG-055 and TG-056) were respectively diluted into various concentrations, and separately added to the cell culture plate containing macrophage. The cells were cultured for 3 h in a complete medium (RPMI 1640 medium:fetal bovine serum:tri-resistance screening agent (i.e. penicillin-streptomycin-gentamicin, Beijing Leagene Biotechnology Co., Ltd.)=89:10:1 based on volume) in a cell incubator at 37° C. and 5% CO2. The cells were lyzed by Trizol (Beijing ComWin Biotech Co., Ltd) to extract RNA, and the RNA concentration was measured using a microvolume nucleic acid and protein analyzer (Nanodrop2000c). The required volume V of RNA was calculated according to the RNA concentration, and the RNA reverse transcription reaction system was prepared according to Table 1. Then RNA reverse transcription (cDNA synthesis) (RT Easy™ I (For first-strand cDNA synthesis) Reverse Transcription Kit, Chengdu ForeGene Biotechnology Co., Ltd.) was carried out according to the conditions described in Table 2. The resulting cDNA was used to prepare a fluorescence quantitative PCR reaction solution according to Table 3. The fluorescence quantitative PCR reaction conditions were set according to Table 4, and the fluorescence quantitative PCR reaction (Real time PCR Easy™-SYBR Green Fluorescence Quantification Kit, Chengdu ForeGene Biotechnology Co., Ltd.) was performed using cDNA from the reverse transcription reaction as a template. The relative expression level 2^−ΔΔCt of the target gene was calculated from the Ct value of each sample with the blank control group as a control and β-Actin as an internal reference.
Based on the maximum level of VEGF-A mRNA expression promoted by a drug at a certain concentration, the activity of the drug was determined. The expression level of VEGF-A mRNA in macrophages was defined as 1 when no drug was added. Using a traditional Chinese medicine injection Salvianolate that is used in the treatment of Cardio-cerebrovascular disease and promotes a maximum level of VEGF-A mRNA expression of 6 in macrophages (the results are shown in Table 5) as a judgment standard, the compound promoting a maximum level of VEGF-A mRNA expression of 4 or more in macrophage was a target compound. That is, when the maximum level of VEGF-A mRNA expression in macrophages promoted by the test compound is over 4-fold higher than the expression level of VEGF-A mRNA in macrophages without the addition of the test compound, the test compound was a preliminary target compound promoting angiogenesis.

## COc1ccccc1CCCCO[C@@H]1O[C@H](CO)[C@@H](O)[C@H](O)[C@H]1O [TG-001]
  fold induction at 1 µM: 3.68
  fold induction at 100 µM: 1.65
  fold induction at 500 µM: 7.89
  fold induction at 1000 µM: 1.91
  fold induction at 2000 µM: 2.36
  fold induction at 3000 µM: 0.68

## COc1cc(CCCCO[C@@H]2O[C@H](CO)[C@@H](O)[C@H](O)[C@H]2O)cc(OC)c1 [TG-002]
  fold induction at 1 µM: 1.71
  fold induction at 100 µM: 1.68
  fold induction at 500 µM: 1.88
  fold induction at 1000 µM: 1.21
  fold induction at 2000 µM: 0.44
  fold induction at 3000 µM: 0.73

## COc1cccc(CCCCO[C@@H]2O[C@H](CO)[C@@H](O)[C@H](O)[C@H]2O)c1 [TG-004]
  fold induction at 1 µM: 0.9
  fold induction at 100 µM: 0.4
  fold induction at 500 µM: 0.73
  fold induction at 1000 µM: 1.11
  fold induction at 2000 µM: 4.29
  fold induction at 3000 µM: 2.66

## COc1ccc(CCCCCO[C@@H]2O[C@H](CO)[C@@H](O)[C@H](O)[C@H]2O)cc1 [TG-005]
  fold induction at 1 µM: 0.91
  fold induction at 100 µM: 0.36
  fold induction at 500 µM: 2.64
  fold induction at 1000 µM: 1.15
  fold induction at 2000 µM: 1.3
  fold induction at 3000 µM: 2.39

## COc1ccc(CCCCCCO[C@@H]2O[C@H](CO)[C@@H](O)[C@H](O)[C@H]2O)cc1 [TG-006]
  fold induction at 1 µM: 3.86
  fold induction at 100 µM: 1.92
  fold induction at 500 µM: 2.48
  fold induction at 1000 µM: 0.7
  fold induction at 2000 µM: 0.48
  fold induction at 3000 µM: 0.44

## COc1cc(CCCCO[C@@H]2O[C@H](CO)[C@@H](O)[C@H](O)[C@H]2O)cc(OC)c1OC [TG-007]
  fold induction at 1 µM: 4.38
  fold induction at 100 µM: 1.67
  fold induction at 500 µM: 1.42
  fold induction at 1000 µM: 2.87
  fold induction at 2000 µM: 0.65
  fold induction at 3000 µM: 0.99

## OC[C@H]1O[C@@H](OCCCCc2ccc3c(c2)OCO3)[C@H](O)[C@@H](O)[C@@H]1O [TG-008]
  fold induction at 1 µM: 3.34
  fold induction at 100 µM: 1.38
  fold induction at 500 µM: 1.42
  fold induction at 1000 µM: 0.61
  fold induction at 2000 µM: 6.28
  fold induction at 3000 µM: 5.46

## OC[C@H]1O[C@@H](OCCCCC2CCCCC2)[C@H](O)[C@@H](O)[C@@H]1O [TG-009]
  fold induction at 1 µM: 1.29
  fold induction at 100 µM: 1.28
  fold induction at 500 µM: 0.95
  fold induction at 1000 µM: 1
  fold induction at 2000 µM: 1.61
  fold induction at 3000 µM: 5.94

## OC[C@H]1O[C@@H](OCCCCc2ccc(F)cc2)[C@H](O)[C@@H](O)[C@@H]1O [TG-010]
  fold induction at 1 µM: 0.98
  fold induction at 100 µM: 0.68
  fold induction at 500 µM: 0.69
  fold induction at 1000 µM: 1.48
  fold induction at 2000 µM: 5.31
  fold induction at 3000 µM: 9.78

## O=[N+]([O-])c1ccc(CCCCO[C@@H]2O[C@H](CO)[C@@H](O)[C@H](O)[C@H]2O)cc1 [TG-011]
  fold induction at 1 µM: 1.75
  fold induction at 100 µM: 1.18
  fold induction at 500 µM: 1.3
  fold induction at 1000 µM: 0.46
  fold induction at 2000 µM: 1.24
  fold induction at 3000 µM: 0.55

## OC[C@H]1O[C@@H](OCCCCc2ccc(Br)cc2)[C@H](O)[C@@H](O)[C@@H]1O [TG-012]
  fold induction at 1 µM: 1.99
  fold induction at 100 µM: 2.31
  fold induction at 500 µM: 3.14
  fold induction at 1000 µM: 0.5
  fold induction at 2000 µM: 2.08
  fold induction at 3000 µM: 4.38

## OC[C@H]1O[C@@H](OCCCCc2ccc(OCc3ccccc3)cc2)[C@H](O)[C@@H](O)[C@@H]1O [TG-013]
  fold induction at 1 µM: 1.44
  fold induction at 100 µM: 2.51
  fold induction at 500 µM: 3.98
  fold induction at 1000 µM: 3.3
  fold induction at 2000 µM: 3.23
  fold induction at 3000 µM: 2.44

## C=CCOc1ccc(CCCCO[C@@H]2O[C@H](CO)[C@@H](O)[C@H](O)[C@H]2O)cc1 [TG-015]
  fold induction at 1 µM: 1.58
  fold induction at 100 µM: 1.26
  fold induction at 500 µM: 2.18
  fold induction at 1000 µM: 4.3
  fold induction at 2000 µM: 1.65
  fold induction at 3000 µM: 1.53

## OC[C@H]1O[C@@H](OCCCCc2ccc(OCC3CCCCC3)cc2)[C@H](O)[C@@H](O)[C@@H]1O [TG-016]
  fold induction at 1 µM: 3.09
  fold induction at 100 µM: 1
  fold induction at 500 µM: 1.34
  fold induction at 1000 µM: 1.54
  fold induction at 2000 µM: 2.77
  fold induction at 3000 µM: 17.1

## OC[C@H]1O[C@@H](OCCCCc2ccc(OCc3cccnc3)cc2)[C@H](O)[C@@H](O)[C@@H]1O [TG-017]
  fold induction at 1 µM: 1.54
  fold induction at 100 µM: 1.29
  fold induction at 500 µM: 2.55
  fold induction at 1000 µM: 5.9
  fold induction at 2000 µM: 2.29
  fold induction at 3000 µM: 2.48

## OC[C@H]1O[C@@H](OCCCCc2ccc(OCC3CCCC3)cc2)[C@H](O)[C@@H](O)[C@@H]1O [TG-018]
  fold induction at 1 µM: 0.88
  fold induction at 100 µM: 3.62
  fold induction at 500 µM: 4.15
  fold induction at 1000 µM: 5.26
  fold induction at 2000 µM: 7.24
  fold induction at 3000 µM: 6.53

## OC[C@H]1O[C@@H](OCCCCc2ccc(OCc3ccncc3)cc2)[C@H](O)[C@@H](O)[C@@H]1O [TG-019]
  fold induction at 1 µM: 0.74
  fold induction at 100 µM: 0.72
  fold induction at 500 µM: 1.03
  fold induction at 1000 µM: 5.2
  fold induction at 2000 µM: 7.03
  fold induction at 3000 µM: 2.92

## OC[C@H]1O[C@@H](OCCCCc2ccc(OCC3CCOCC3)cc2)[C@H](O)[C@@H](O)[C@@H]1O [TG-020]
  fold induction at 1 µM: 0.88
  fold induction at 100 µM: 0.93
  fold induction at 500 µM: 2.8
  fold induction at 1000 µM: 3.9
  fold induction at 2000 µM: 2.24
  fold induction at 3000 µM: 2.56

## OC[C@H]1O[C@@H](OCCCCc2ccc(OCC3CCC3)cc2)[C@H](O)[C@@H](O)[C@@H]1O [TG-021]
  fold induction at 1 µM: 0.87
  fold induction at 100 µM: 2.69
  fold induction at 500 µM: 3.81
  fold induction at 1000 µM: 4.24
  fold induction at 2000 µM: 9.2
  fold induction at 3000 µM: 7.96

## OC[C@H]1O[C@@H](OCCCCc2ccc(OCc3ccccn3)cc2)[C@H](O)[C@@H](O)[C@@H]1O [TG-022]
  fold induction at 1 µM: 2.31
  fold induction at 100 µM: 0.91
  fold induction at 500 µM: 1.43
  fold induction at 1000 µM: 1.68
  fold induction at 2000 µM: 1.89
  fold induction at 3000 µM: 0.66

## OC[C@H]1O[C@@H](OCCCCc2ccc(O)cc2)[C@H](O)[C@@H](O)[C@@H]1O [TG-023]
  fold induction at 1 µM: 0.16
  fold induction at 100 µM: 0.55
  fold induction at 500 µM: 0.71
  fold induction at 1000 µM: 0.5
  fold induction at 2000 µM: 0.19
  fold induction at 3000 µM: 0.71

## CCOc1ccc(CCCCO[C@@H]2O[C@H](CO)[C@@H](O)[C@H](O)[C@H]2O)cc1 [TG-024]
  fold induction at 1 µM: 1.82
  fold induction at 100 µM: 1.14
  fold induction at 500 µM: 1.64
  fold induction at 1000 µM: 4.86
  fold induction at 2000 µM: 8.38
  fold induction at 3000 µM: 4.32

## OC[C@H]1O[C@@H](OCCCCc2ccc(OCC3COC3)cc2)[C@H](O)[C@@H](O)[C@@H]1O [TG-025]
  fold induction at 1 µM: 1.62
  fold induction at 100 µM: 1.78
  fold induction at 500 µM: 1.43
  fold induction at 1000 µM: 2.15
  fold induction at 2000 µM: 9.69
  fold induction at 3000 µM: 2.06

Source: patent US11325937B2, “Glycoside compound and preparation method therefor, composition, application, and intermediate” (SHANGHAI HUTCHISON PHARMACEUTICALS LIMITED, priority 2018, dated 2022)
